Reference: US4125610A, “Antibacterial compositions” (priority 1977, dated 1978)
Values after ≈ are worked out from the molar mass of the structure shown. Read-outs that look alike come from different tables or passages of the source.

Columns and labels:
[1] = tested on: experimental tuberculosis; details: cited from earlier work
[2] = laboratory animals, cited from earlier work
[3] = tested on: Ps. fluorescens; details: in vivo; cited from earlier work
[4] = tested on: Pr. vulgaris; test: microbe, parasite or virus in culture; format: cell-based; details: for MIC: Proteus vulgaris
Method: (§1) The geometric mean MIC's were determined from MIC's obtained in two separate tests of each of the strains of Staphylococcus and Proteus, and three separate tests for each of the other organisms.

[5] = tested on: Pr. rettgeri; test: microbe, parasite or virus in culture; format: cell-based; details: Providencia rettgeri
Method: as §1

[6] = tested on: Ent. cloacae; test: microbe, parasite or virus in culture; format: cell-based; details: Enterobacter cloacae
Method: as §1

[7] = tested on: Pr. mirabilis; test: microbe, parasite or virus in culture; format: cell-based; details: Proteus mirabilis
Method: as §1

[8] = tested on: Pr. morganii; test: microbe, parasite or virus in culture; format: cell-based; details: Morganella morganii
Method: as §1

[9] = tested on: Kl. pneumoniae; test: microbe, parasite or virus in culture; format: cell-based; details: Klebsiella pneumoniae
Method: as §1

[10] = tested on: Staph. aureus; test: microbe, parasite or virus in culture; format: cell-based; details: Staphylococcus aureus, read-out: Geometric Mean MIC
Method: as §1

[11] = tested on: E. coli; test: microbe, parasite or virus in culture; format: cell-based; details: Escherichia coli
Method: as §1

[12] = tested on: S. pyogenes A9604; test: animal or person; format: in vivo, mice; details: Streptococcus pyogenes, A9604, in Mus musculus, po, read-out: PD50 /treatment
[13] = tested on: E. coli A15119; test: animal or person; format: in vivo, mice; details: Escherichia coli, A15119, in Mus musculus, po, read-out: PD50 /treatment
[14] = tested on: A20119; test: Antibacterial activity, MIC by twofold broth dilution (Table 1), organism name not given; format: cell-based
Method: (§2) *The MIC's were determined by the twofold broth dilution method following
(§3) overnight incubation at 37° C in Meuller-Hinton Broth containing 2
(§4) lysed defibrinated horse blood and using 10^-4 dilutions of overnight
(§5) broth cultures (10^-3 dilutions of Staph. aureus strains A9606 and
(§6) A15097) as inocula at the rate of 0.5 ml of inoculum per 0.5 ml of […]

[15] = tested on: Plasmodium berghei; details: in vivo; cited from earlier work
[16] = tested on: experimental tuberculosis; details: cited from earlier work; remark: listed apart in the source
[17] = tested on: Histoplasma capsulatum; details: mouse, in vivo, iv; cited from earlier work
[18] = tested on: S. typhosa; details: in vivo; cited from earlier work
[19] = tested on: S. aureus A9537; test: animal or person; format: in vivo, mice; details: Staphylococcus aureus, A9537, in Mus musculus, po
[20] = tested on: a variety of bacterial species; details: cited from earlier work
[21] = tested on: Ent. cloacae; test: microbe, parasite or virus in culture; format: cell-based; details: Enterobacter cloacae; remark: listed apart in the source
Method: as §2, §3, §4, §5, §6

[22] = tested on: Pr. mirabilis; test: microbe, parasite or virus in culture; format: cell-based
Method: as §2, §3, §4, §5, §6

[23] = tested on: Kl. pneumoniae; test: microbe, parasite or virus in culture; format: cell-based; details: Klebsiella pneumoniae; remark: listed apart in the source
Method: as §2, §3, §4, §5, §6

[24] = tested on: Ps. aeruginosa; test: microbe, parasite or virus in culture; format: cell-based; details: Pseudomonas aeruginosa
Method: as §2, §3, §4, §5, §6

[25] = tested on: Staph. aureus; test: microbe, parasite or virus in culture; format: cell-based
Method: as §2, §3, §4, §5, §6

[26] = tested on: E. coli; test: microbe, parasite or virus in culture; format: cell-based; details: Escherichia coli; remark: listed apart in the source
Method: as §2, §3, §4, §5, §6

[27] = tested on: P. mirabilis A9900; test: animal or person; format: in vivo, mice; details: Proteus mirabilis, A9900, in Mus musculus, po
[28] = tested on: K. pneumoniae A9977; test: animal or person; format: in vivo, mice; details: Klebsiella pneumoniae, A9977, in Mus musculus, po, read-out: PD50 /treatment

SMILES: Nc1ccc(P(=O)(O)O)cc1 [P, p-aminophenylphosphonic acid]
- effect in vivo [1]: no effect in vivo
- absorption ([2]; blood level studies): poor absorption
- toxicity [2]: low toxicity
- efficacy in infected mice [3]: effective in vivo
- MIC ([4]; read-out: Geometric Mean MIC, 1 strain (first listed Pr. vulgaris)): > 125 µg/mL
- MIC ([4]; read-out: Geometric Mean MIC, 2 strains (2nd Pr. vulgaris line)): 8 µg/mL (≈ 46.2 µM)
- component in the 16:1 mixture at its MIC as % of its individual MIC ([4]; first listed strain of Pr. vulgaris): < 3.0%
- amount of component in 4 μg/ml of the 16:1 mixture ([4]; first listed strain of Pr. vulgaris, 16:1 mixture at its MIC): 3.76 µg/mL
- MIC ([5]; read-out: Geometric Mean MIC, 1 strain (1st Pr. rettgeri line)): 0.5 µg/mL (≈ 2.89 µM)
- MIC ([5]; read-out: Geometric Mean MIC, 1 strain (2nd Pr. rettgeri line)): > 125 µg/mL
- MIC ([6]; read-out: Geometric Mean MIC, 1 strain (1st Ent. cloacae line)): 8 µg/mL (≈ 46.2 µM)
- MIC ([6]; read-out: Geometric Mean MIC, 1 strain (3rd Ent. cloacae line)): > 125 µg/mL
- MIC ([6]; read-out: Geometric Mean MIC, 2 strains (4th Ent. cloacae line)): 63 µg/mL (≈ 364 µM)
- MIC ([6]; read-out: Geometric Mean MIC, 3 strains (2nd Ent. cloacae line)): 20 µg/mL (≈ 116 µM)
- MIC ([7]; read-out: Geometric Mean MIC, 1 strain (3rd Pr. mirabilis line)): 11.3 µg/mL (≈ 65.3 µM)
- MIC ([7]; read-out: Geometric Mean MIC, 1 strain (4th Pr. mirabilis line)): 16 µg/mL (≈ 92.4 µM)
- MIC ([7]; read-out: Geometric Mean MIC, 2 strains (2nd Pr. mirabilis line)): > 105 µg/mL
- MIC ([7]; read-out: Geometric Mean MIC, 4 strains (1st Pr. mirabilis line)): 7.3 µg/mL (≈ 42.2 µM)
- MIC ([8]; read-out: Geometric Mean MIC, 1 strain (1st Pr. morganii line)): > 125 µg/mL
- MIC ([8]; read-out: Geometric Mean MIC, 2 strains (2nd Pr. morganii line)): 11.3 µg/mL (≈ 65.3 µM)
- MIC ([9]; read-out: Geometric Mean MIC, 1 strain (2nd Kl. pneumoniae line)): 40 µg/mL (≈ 231 µM)
- MIC ([9]; read-out: Geometric Mean MIC, 1 strain (4th Kl. pneumoniae line)): > 125 µg/mL
- MIC ([9]; read-out: Geometric Mean MIC, 2 strains (3rd Kl. pneumoniae line)): 40 µg/mL (≈ 231 µM)
- MIC ([9]; read-out: Geometric Mean MIC, 5 strains (1st Kl. pneumoniae line)): 18 µg/mL (≈ 104 µM)
- MIC [10]: > 109 µg/mL
- MIC ([11]; read-out: Geometric Mean MIC, 1 strain (1st E. coli line)): 6.4 µg/mL (≈ 37 µM)
- MIC ([11]; read-out: Geometric Mean MIC, 2 strains (2nd E. coli line)): 18 µg/mL (≈ 104 µM)
- MIC ([11]; read-out: Geometric Mean MIC, 2 strains (3rd E. coli line)): > 125 µg/mL
- MIC ([11]; read-out: Geometric Mean MIC, 4 strains (4th E. coli line)): 20 µg/mL (≈ 116 µM)
- ED50 [12]: > 400 mg/kg
- ED50 ([13]; 3 h): > 400 mg/kg
- ED50 [13]: > 400 mg/kg
- MIC [14]: > 125 µg/mL
- efficacy in infected mice [15]: effective in vivo
- tubercularstatic activity in vitro [16]: good tubercularstatic activity in vitro
- protective effect [17]: some protective effect
- efficacy in infected mice [18]: effective in vivo
- ED50 ([19]; read-out: PD50 /treatment): > 400 mg/kg
- ED50 ([19]; read-out: PD50 /treatment, oral, mice, challenge 1×10^5, 0 and 4 hr post-challenge): > 100 mg/kg
- in vitro activity compared with sulfathiazole ([20]; molar basis): approached that of sulfathiazole
- in vitro activity ([20]; relative to the compounds tested): generally the most active of the compounds tested
- MIC ([21]; strain A-9656): > 125 µg/mL
- MIC ([21]; strain A-9657): 63 µg/mL (≈ 364 µM)
- MIC ([21]; strain A-9659): > 125 µg/mL
- MIC ([22]; Proteus mirabilis): > 125 µg/mL
- MIC ([22]; Proteus mirabilis, strain A-9696): > 125 µg/mL
- MIC [23]: > 125 µg/mL
- MIC ([23]; strain A15130): > 125 µg/mL
- MIC ([23]; strain A20468): > 125 µg/mL
- MIC ([24]; strain A15151): 1 µg/mL (≈ 5.78 µM)
- MIC ([24]; strain A20126): 16 µg/mL (≈ 92.4 µM)
- MIC ([24]; strain A20227): 1 µg/mL (≈ 5.78 µM)
- MIC ([24]; strain A20229): 63 µg/mL (≈ 364 µM)
- MIC ([24]; strain A20543): 16 µg/mL (≈ 92.4 µM)
- MIC ([24]; strain A20574): 1 µg/mL (≈ 5.78 µM)
- MIC ([24]; strain A20602): 125 µg/mL (≈ 722 µM)
- MIC ([24]; strain A-9843a): 4 µg/mL (≈ 23.1 µM)
- MIC ([24]; strain A-9925): 16 µg/mL (≈ 92.4 µM)
- MIC ([25]; Staphylococcus aureus): > 125 µg/mL
- MIC ([25]; strain A15097, 10^-3 dilution inoculum): > 125 µg/mL
- MIC ([25]; strain A-9606, 10^-3 dilution inoculum): > 125 µg/mL
- MIC [26]: > 125 µg/mL
- MIC ([26]; strain A15119): > 125 µg/mL
- MIC ([26]; strain A-9671): > 125 µg/mL
- ED50 ([27]; read-out: PD50 /treatment, oral, mice, challenge 6×10^6, 0 and 2 hr post-challenge): > 200 mg/kg
- ED50 ([27]; read-out: PD50 /treatment, oral, mice, challenge 8×10^6, 0 and 2 hr post-challenge (1st P. mirabilis line)): > 800 mg/kg
- ED50 ([27]; read-out: PD50 /treatment, oral, mice, challenge 8×10^6, 0 and 2 hr post-challenge (3rd P. mirabilis line)): > 200 mg/kg
- ED50 ([28]; 54 h): > 400 mg/kg
- ED50 [28]: > 400 mg/kg

SMILES: COc1cc(Cc2cnc(N)nc2N)cc(OC)c1OC [T, 2,4-diamino-5-(3',4',5'-trimethoxybenzyl)pyrimidine]
- Geometric Mean MIC [4]: 0.6 µg/mL
- amount of component in 4 μg/ml of the 16:1 mixture [4]: 0.235 µg/mL
- component in the 16:1 mixture at its MIC as % of its individual MIC [4]: 23%
- MIC ([4]; read-out: Geometric Mean MIC): 1 µg/mL (≈ 3.44 µM)
- MIC [10]: 0.5 µg/mL (≈ 1.72 µM)
- ED50 [12]: > 400 mg/kg
- ED50 ([13]; 3 h): 200 mg/kg
- ED50 [13]: 262 mg/kg
- MIC [14]: 16 µg/mL (≈ 55.1 µM)
- MIC [22]: 4 µg/mL (≈ 13.8 µM)
- MIC ([22]; Proteus mirabilis): 2 µg/mL (≈ 6.89 µM)
- MIC ([25]; Staphylococcus aureus): 0.25 µg/mL (≈ 0.861 µM)
- ED50 ([27]; read-out: PD50 /treatment): > 200 mg/kg
- ED50 ([28]; 54 h): 348 mg/kg
